Measured values: patent US8629143B2, “Potassium channel modulators” (AbbVie Inc., priority 2009, dated 2014)

Target: T1, KCNQ 2/3 channels (HEK293 cells stably expressing human KCNQ2 and KCNQ3 subunits) (Homo sapiens, UniProt O43525+O43526)
T1 construct: expressed in transfected cells; host or cells: HEK293
Assay: KCNQ2/3 channel activation, thallium flux FLIPR assay with BTC-AM dye
Format: cell-based
Settings: for Emax: HEK293, maximum response relative to the response produced by 10 μM retigabine (set at 100%), read-out: Max. %; for EC50: HEK293 cells expressing human KCNQ2 and KCNQ3, thallium flux, FLIPR
Outline: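 HEK293 cells stably expressing human KCNQ2/KCNQ3 were loaded with BTC-AM (3 μg/mL, 2 h, RT) and preincubated with compound for 4 min in pH 7.3 gluconate buffer containing 0.1 mM ouabain. Flux was triggered by 6 mM TlNO3/10 mM K2SO4 and read for 3 min; EC50 came from summed responses over basal, with maximum relative to 10 μM retigabine (100%).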

SMILES: CC1(C)[C@H]2CC[C@@H](CC(=O)Nn3nc(-c4ccc(Cl)cc4)c4ccccc4c3=O)[C@@H]1C2 [Example 115, N-[4-(4-chlorophenyl)-1-oxophthalazin-2(1H)-yl]-2-[(1S,2S,5S)-6,6-dimethylbicyclo[3.1.1]hept-2-yl]acetamide]
- Emax: 69%
- EC50: 100 to 500 nM

SMILES: O=C(CC12CC3CC(CC(C3)C1)C2)Nn1nc(-c2ccc(Cl)cc2)c2ccccc2c1=O [Example 116, 2-(adamantan-1-yl)-N-[4-(4-chlorophenyl)-1-oxophthalazin-2(1H)-yl]acetamide]
- Emax: 132%
- EC50: < 100 nM

SMILES: O=C(Cc1cc(F)cc(F)c1)Nn1nc(-c2ccc(Cl)cc2)c2ccccc2c1=O [Example 118, N-[4-(4-chlorophenyl)-1-oxophthalazin-2(1H)-yl]-2-(3,5-difluorophenyl)acetamide]
- Emax: 128%
- EC50: < 100 nM

SMILES: O=C(CC1(c2ccccc2)CCCC1)Nn1nc(-c2ccc(Cl)cc2)c2ccccc2c1=O [Example 119, N-[4-(4-chlorophenyl)-1-oxophthalazin-2(1H)-yl]-2-(1-phenylcyclopentyl)acetamide]
- Emax: 12%
- EC50: > 10000 nM

SMILES: O=C(Cc1ccc2ccccc2c1)Nn1nc(-c2ccc(Cl)cc2)c2ccccc2c1=O [Example 121, N-[4-(4-chlorophenyl)-1-oxophthalazin-2(1H)-yl]-2-(2-naphthyl)acetamide]
- Emax: 201%
- EC50: 1000 to 10000 nM

SMILES: O=C(CCC(F)(F)F)Nn1nc(-c2ccc(Cl)cc2)c2ccccc2c1=O [Example 123, N-[4-(4-chlorophenyl)-1-oxophthalazin-2(1H)-yl]-4,4,4-trifluorobutanamide]
- Emax: 48%
- EC50: 500 to 1000 nM

SMILES: O=C(CC(F)(F)F)Nn1nc(-c2ccc(Cl)cc2)c2ccccc2c1=O [Example 124, N-[4-(4-chlorophenyl)-1-oxophthalazin-2(1H)-yl]-3,3,3-trifluoropropanamide]
- Emax: 33%
- EC50: 1000 to 10000 nM

SMILES: O=C(CC12CC3CC(CC(C3)C1)C2)Nn1nc(-c2cccc(Cl)c2)c2ccccc2c1=O [Example 126, 2-(adamantan-1-yl)-N-[4-(3-chlorophenyl)-1-oxophthalazin-2(1H)-yl]acetamide]
- Emax: 153%
- EC50: 100 to 500 nM

SMILES: O=C(Cc1ccc(Cl)cc1)Nn1nc(-c2cccc(Cl)c2)c2ccccc2c1=O [Example 127, 2-(4-chlorophenyl)-N-[4-(3-chlorophenyl)-1-oxophthalazin-2(1H)-yl]acetamide]
- Emax: 101%
- EC50: 100 to 500 nM

SMILES: O=C(Cc1cc(F)cc(F)c1)Nn1nc(-c2cccc(Cl)c2)c2ccccc2c1=O [Example 128, N-[4-(3-chlorophenyl)-1-oxophthalazin-2(1H)-yl]-2-(3,5-difluorophenyl)acetamide]
- Emax: 140%
- EC50: 100 to 500 nM

SMILES: O=C(C[C@@H]1C[C@@H]2CC[C@H]1C2)Nn1nc(-c2ccc(F)cc2)c2ccccc2c1=O [Example 129, 2-[(1S,2S,4R)-bicyclo[2.2.1]hept-2-yl]-N-[4-(4-fluorophenyl)-1-oxophthalazin-2(1H)-yl]acetamide]
- Emax: 143%
- EC50: < 100 nM

SMILES: O=C(C[C@@H]1C[C@@H]2C=C[C@H]1C2)Nn1nc(-c2ccc(F)cc2)c2ccccc2c1=O [Example 130, 2-[(1S,2S,4S)-bicyclo[2.2.1]hept-5-en-2-yl]-N-[4-(4-fluorophenyl)-1-oxophthalazin-2(1H)-yl]acetamide]
- Emax: 156%
- EC50: < 100 nM

SMILES: O=C(Cc1ccc(Cl)cc1)Nn1nc(-c2ccc(F)cc2)c2ccccc2c1=O [Example 132, 2-(4-chlorophenyl)-N-[4-(4-fluorophenyl)-1-oxophthalazin-2(1H)-yl]acetamide]
- Emax: 123%
- EC50: 100 to 500 nM

SMILES: O=C(Cc1cc(F)cc(F)c1)Nn1nc(-c2ccc(F)cc2)c2ccccc2c1=O [Example 133, 2-(3,5-difluorophenyl)-N-[4-(4-fluorophenyl)-1-oxophthalazin-2(1H)-yl]acetamide]
- Emax: 144%
- EC50: 100 to 500 nM

SMILES: Cc1ccc(-c2nn(NC(=O)Cc3ccc(Cl)cc3)c(=O)c3ccccc23)cc1 [Example 135, 2-(4-chlorophenyl)-N-[4-(4-methylphenyl)-1-oxophthalazin-2(1H)-yl]acetamide]
- Emax: 95%
- EC50: 100 to 500 nM

SMILES: Cc1ccc(-c2nn(NC(=O)Cc3cc(F)cc(F)c3)c(=O)c3ccccc23)cc1 [Example 136, 2-(3,5-difluorophenyl)-N-[4-(4-methylphenyl)-1-oxophthalazin-2(1H)-yl]acetamide]
- Emax: 130%
- EC50: < 100 nM

SMILES: Cc1ccc(-c2nn(NC(=O)C[C@@H]3CC[C@H]4C[C@@H]3C4(C)C)c(=O)c3ccccc23)cc1 [Example 137, 2-[(1S,2S,5S)-6,6-dimethylbicyclo[3.1.1]hept-2-yl]-N-[4-(4-methylphenyl)-1-oxophthalazin-2(1H)-yl]acetamide]
- Emax: 95%
- EC50: 100 to 500 nM

SMILES: Cc1ccc(-c2nn(NC(=O)CC34CC5CC(CC(C5)C3)C4)c(=O)c3ccccc23)cc1 [Example 138, 2-(adamantan-1-yl)-N-[4-(4-methylphenyl)-1-oxophthalazin-2(1H)-yl]acetamide]
- Emax: 129%
- EC50: < 100 nM

SMILES: O=C(CC1(C(F)(F)F)CCCC1)Nn1nc(Cc2ccccc2)c2ccccc2c1=O [Example 139, N-(4-benzyl-1-oxophthalazin-2(1H)-yl)-2-[1-(trifluoromethyl)cyclopentyl]acetamide]
- Emax: 20%
- EC50: > 10000 nM

SMILES: CC(C)(CC(=O)Nn1nc(Cc2ccccc2)c2ccccc2c1=O)c1ccccc1 [Example 140, N-(4-benzyl-1-oxophthalazin-2(1H)-yl)-3-methyl-3-phenylbutanamide]
- Emax: 126%
- EC50: < 100 nM

SMILES: O=C(Cc1ccc(Cl)cc1)Nn1nc(Cc2ccccc2)c2ccccc2c1=O [Example 142, N-(4-benzyl-1-oxophthalazin-2(1H)-yl)-2-(4-chlorophenyl)acetamide]
- Emax: 109%
- EC50: < 100 nM

SMILES: O=C(Cc1cc(F)cc(F)c1)Nn1nc(Cc2ccccc2)c2ccccc2c1=O [Example 143, N-(4-benzyl-1-oxophthalazin-2(1H)-yl)-2-(3,5-difluorophenyl)acetamide]
- Emax: 128%
- EC50: < 100 nM

SMILES: O=C(Cc1ccc(Cl)cc1)Nn1nc(Cc2ccc(Cl)cc2)c2ccccc2c1=O [Example 145, N-[4-(4-chlorobenzyl)-1-oxophthalazin-2(1H)-yl]-2-(4-chlorophenyl)acetamide]
- Emax: 101%
- EC50: 100 to 500 nM

SMILES: O=C(Cc1cc(F)cc(F)c1)Nn1nc(Cc2ccc(Cl)cc2)c2ccccc2c1=O [Example 146, N-[4-(4-chlorobenzyl)-1-oxophthalazin-2(1H)-yl]-2-(3,5-difluorophenyl)acetamide]
- Emax: 83%
- EC50: 100 to 500 nM

SMILES: O=C(C[C@@H]1C[C@@H]2CC[C@H]1C2)Nn1nc(-c2ccc(C(F)(F)F)cc2)c2ccccc2c1=O [Example 147, 2-[(1S,2S,4R)-bicyclo[2.2.1]hept-2-yl]-N-{1-oxo-4-[4-(trifluoromethyl)phenyl]phthalazin-2(1H)-yl}acetamide]
- Emax: 154%
- EC50: 100 to 500 nM

SMILES: CC(C)(CC(=O)Nn1nc(-c2ccc(C(F)(F)F)cc2)c2ccccc2c1=O)c1ccccc1 [Example 148, 3-methyl-N-{1-oxo-4-[4-(trifluoromethyl)phenyl]phthalazin-2(1H)-yl}-3-phenylbutanamide]
- Emax: 114%
- EC50: 100 to 500 nM

SMILES: O=C(CC12CC3CC(CC(C3)C1)C2)Nn1nc(-c2ccc(C(F)(F)F)cc2)c2ccccc2c1=O [Example 149, 2-(adamantan-1-yl)-N-{1-oxo-4-[4-(trifluoromethyl)phenyl]phthalazin-2(1H)-yl}acetamide]
- Emax: 133%
- EC50: < 100 nM

SMILES: COc1ccc(-c2nn(NC(=O)CC3CCC(C)CC3)c(=O)c3ccccc23)cc1 (stereo not shown) [Example 152, N-[4-(4-methoxyphenyl)-1-oxophthalazin-2(1H)-yl]-2-(4-methylcyclohexyl)acetamide]
- Emax: 114%
- EC50: 100 to 500 nM

SMILES: COc1ccc(-c2nn(NC(=O)Cc3cc(F)cc(F)c3)c(=O)c3ccccc23)cc1 [Example 153, 2-(3,5-difluorophenyl)-N-[4-(4-methoxyphenyl)-1-oxophthalazin-2(1H)-yl]acetamide]
- Emax: 143%
- EC50: 500 to 1000 nM

SMILES: COc1ccc(-c2nn(NC(=O)CC34CC5CC(CC(C5)C3)C4)c(=O)c3ccccc23)cc1 [Example 154, 2-(adamantan-1-yl)-N-[4-(4-methoxyphenyl)-1-oxophthalazin-2(1H)-yl]acetamide]
- Emax: 136%
- EC50: < 100 nM

SMILES: Cc1ccc(C)c(-c2nn(NC(=O)CC34CC5CC(CC(C5)C3)C4)c(=O)c3ccccc23)c1 [Example 156, 2-(adamantan-1-yl)-N-[4-(2,5-dimethylphenyl)-1-oxophthalazin-2(1H)-yl]acetamide]
- Emax: 177%
- EC50: 100 to 500 nM

SMILES: Cc1ccc(C)c(-c2nn(NC(=O)Cc3ccc(Cl)cc3)c(=O)c3ccccc23)c1 [Example 157, 2-(4-chlorophenyl)-N-[4-(2,5-dimethylphenyl)-1-oxophthalazin-2(1H)-yl]acetamide]
- Emax: 155%
- EC50: 100 to 500 nM

SMILES: Cc1ccc(C)c(-c2nn(NC(=O)Cc3cc(F)cc(F)c3)c(=O)c3ccccc23)c1 [Example 158, 2-(3,5-difluorophenyl)-N-[4-(2,5-dimethylphenyl)-1-oxophthalazin-2(1H)-yl]acetamide]
- Emax: 167%
- EC50: 100 to 500 nM

SMILES: Cc1ccc(-c2nn(NC(=O)C[C@@H]3C[C@@H]4C=C[C@H]3C4)c(=O)c3ccccc23)c(C)c1 [Example 159, 2-[(1S,2S,4S)-bicyclo[2.2.1]hept-5-en-2-yl]-N-[4-(2,4-dimethylphenyl)-1-oxophthalazin-2(1H)-yl]acetamide]
- Emax: 156%
- EC50: 100 to 500 nM

SMILES: Cc1ccc(-c2nn(NC(=O)Cc3ccc(Cl)cc3)c(=O)c3ccccc23)c(C)c1 [Example 161, 2-(4-chlorophenyl)-N-[4-(2,4-dimethylphenyl)-1-oxophthalazin-2(1H)-yl]acetamide]
- Emax: 145%
- EC50: 100 to 500 nM
